Calls of active or inactive are those of the source. No cut-off for these calls is given here.
Experiments:
[1] = system: HL-60; experiment: Cytotoxicity against human HL60 cells by MTT assay after 72 hrs; assay type: functional, cell-based; conditions: HL-60, 72 h
[2] = system: SNB-75; experiment: Cytotoxicity against human SNB75 cells by MTT assay after 72 hrs; assay type: functional; conditions: SNB-75, 72 h
[3] = system: KM12; experiment: Cytotoxicity against human KM12 cells by MTT assay after 72 hrs; assay type: functional; conditions: KM12, 72 h
[4] = system: SF-268; experiment: Cytotoxicity against human SF268 cells by MTT assay after 72 hrs; assay type: functional; conditions: SF-268, 72 h
[5] = system: MKN-45; experiment: Cytotoxicity against human MKN45 cells by MTT assay after 72 hrs; assay type: functional; conditions: MKN-45, 72 h
[6] = Cytotoxicity against human RXF631L cells by MTT assay after 72 hrs; assay type: functional; conditions: RXF 631, 72 h
[7] = system: DU-145; experiment: Cytotoxicity against human DU145 cells by MTT assay after 72 hrs; assay type: functional; conditions: DU-145, 72 h
[8] = system: HCT-15; experiment: Cytotoxicity against human HCT15 cells by MTT assay after 72 hrs; assay type: functional; conditions: HCT-15, 72 h
[9] = system: OVCAR-3; experiment: Cytotoxicity against human OVCAR-3 cells by MTT assay after 72 hrs; assay type: functional; conditions: OVCAR-3, 72 h
[10] = system: OVCAR-4; experiment: Cytotoxicity against human OVCAR4 cells by MTT assay after 72 hrs; assay type: functional; conditions: OVCAR-4, 72 h
[11] = system: LOX IMVI; experiment: Cytotoxicity against human LOX-IMVI cells by MTT assay after 72 hrs; assay type: functional
[12] = system: MCF7; experiment: Cytotoxicity against human MCF7 cells by MTT assay after 72 hrs; assay type: functional; conditions: MCF7, 72 h
[13] = system: ACHN; experiment: Cytotoxicity against human ACHN cells by MTT assay after 72 hrs; assay type: functional
[14] = Cytotoxicity against human BSY1 cells by MTT assay after 72 hrs; assay type: functional; conditions: BSY-1, 72 h
[15] = Cytotoxicity against human HBC5 cells by MTT assay after 72 hrs; assay type: functional; conditions: HBC5, 72 h
[16] = system: HCC 2998; experiment: Cytotoxicity against human HCC2998 cells by MTT assay after 72 hrs; assay type: functional; conditions: HCC 2998, 72 h
[17] = system: DMS-273; experiment: Cytotoxicity against human DMS273 cells by MTT assay after 72 hrs; assay type: functional; conditions: DMS-273, 72 h
[18] = system: DMS-114; experiment: Cytotoxicity against human DMS114 cells by MTT assay after 72 hrs; assay type: functional; conditions: DMS-114, 72 h
[19] = Cytotoxicity against human […] cells by MTT assay after 72 hrs; assay type: functional
[20] = Cytotoxicity against human MKN1 cells by MTT assay after 72 hrs; assay type: functional; conditions: MKN-1, 72 h
[21] = system: NCI-H522; experiment: Cytotoxicity against human NCIH522 cells by MTT assay after 72 hrs; assay type: functional; conditions: NCI-H522, 72 h
[22] = system: PC-3; experiment: Cytotoxicity against human PC3 cells by MTT assay after 72 hrs; assay type: functional; conditions: PC-3, 72 h
[23] = system: SF-539; experiment: Cytotoxicity against human SF539 cells by MTT assay after 72 hrs; assay type: functional; conditions: SF-539, 72 h
[24] = system: NCI-H460; experiment: Cytotoxicity against human NCIH460 cells by MTT assay after 72 hrs; assay type: functional; conditions: NCI-H460, 72 h
[25] = system: SNB-78; experiment: Cytotoxicity against human SNB78 cells by MTT assay after 72 hrs; assay type: functional; conditions: SNB-78, 72 h
[26] = system: NCI-H23; experiment: Cytotoxicity against human NCIH23 cells by MTT assay after 72 hrs; assay type: functional; conditions: NCI-H23, 72 h
[27] = system: HT-29; experiment: Cytotoxicity against human HT29 cells by MTT assay after 72 hrs; assay type: functional; conditions: HT-29, 72 h
[28] = system: MDA-MB-231; experiment: Cytotoxicity against human MDA-MB-231 cells by MTT assay after 72 hrs; assay type: functional; conditions: MDA-MB-231, 72 h
[29] = system: OVCAR-5; experiment: Cytotoxicity against human OVCAR5 cells by MTT assay after 72 hrs; assay type: functional; conditions: OVCAR-5, 72 h
[30] = system: MKN-28; experiment: Cytotoxicity against human MKN28 cells by MTT assay after 72 hrs; assay type: functional; conditions: MKN-28, 72 h
[31] = system: SK-OV-3; experiment: Cytotoxicity against human SK-OV3 cells by MTT assay after 72 hrs; assay type: functional; conditions: SK-OV-3, 72 h
[32] = system: U-251; experiment: Cytotoxicity against human U251 cells by MTT assay after 72 hrs; assay type: functional; conditions: U-251, 72 h
[33] = system: MKN-74; experiment: Cytotoxicity against human MKN74 cells by MTT assay after 72 hrs; assay type: functional; conditions: MKN-74, 72 h
[34] = Cytotoxicity against human HBC4 cells by MTT assay after 72 hrs; assay type: functional; conditions: HBC4, 72 h
[35] = system: SF-295; experiment: Cytotoxicity against human SF295 cells by MTT assay after 72 hrs; assay type: functional; conditions: SF-295, 72 h
[36] = system: A549; experiment: Cytotoxicity against human A549 cells by MTT assay after 72 hrs; assay type: functional; conditions: A549, 72 h
[37] = system: 3Y1; experiment: Disruption of microtubules in rat 3Y1 cells at 1 uM after 18 hrs; assay type: functional, cell-based
[38] = system: OVCAR-8; experiment: Cytotoxicity against human OVCAR8 cells by MTT assay after 72 hrs; assay type: functional; conditions: OVCAR-8, 72 h
[39] = system: St-4; experiment: Cytotoxicity against human St4 cells by MTT assay after 72 hrs; assay type: functional; conditions: St-4, 72 h
[40] = Cell cycle arrest in rat 3Y1 cells by accumulation at M phase at 3 uM after 18 hrs; assay type: functional, cell-based
[41] = system: HCT-116; experiment: Cytotoxicity against human HCT116 cells by MTT assay after 72 hrs; assay type: functional; conditions: HCT-116, 72 h
[42] = system: MKN-7; experiment: Cytotoxicity against human MKN7 cells by MTT assay after 72 hrs; assay type: functional; conditions: MKN-7, 72 h

Work on COc1cc2occ(-c3cc4c(cc3OC)OCO4)c(=O)c2cc1OC yielded an IC50 [1] of 16 µM.

COc1ccc(-c2coc3cc(OC)c(OC)cc3c2=O)cc1OC showed an IC50 [1] of 23 µM.

COc1cc(OC)c(-c2coc3cc(OC)c(OC)cc3c2=O)cc1OC gave an IC50 [1] of 8.5 µM.

COc1cc2occ(-c3cc(OC)c4c(c3OC)OCO4)c(=O)c2cc1OC [GLAZIOVIANIN A] gave a GI50 [2] of 630 nM, a GI50 [3] of 320 nM and a GI50 [4] of 830 nM. The GI50 [5] was 680 nM, the GI50 [6] was 510 nM and the GI50 [7] was 590 nM. For the same compound, the GI50 [8] was 290 nM, the GI50 [9] was 130 nM and the GI50 [10] was 10.5 µM. The GI50 [11] was 870 nM, the GI50 [12] was 390 nM and the GI50 [13] was 620 nM. The GI50 [14] was 50 nM, the GI50 [15] was 470 nM and the GI50 [16] was 3.02 µM. It also gave a GI50 [17] of 130 nM, a GI50 [18] of 200 nM and a GI50 [19] of 580 nM. The GI50 [20] was 690 nM, the GI50 [21] was 230 nM and the GI50 [22] was 100 nM. It also gave a GI50 [23] of 320 nM, a GI50 [24] of 410 nM and a GI50 [25] of 10.7 µM. For the same compound, the GI50 [26] was 5.13 µM, the GI50 [27] was 460 nM and the GI50 [28] was 1100 nM. It also gave a GI50 [29] of 2190 nM, a GI50 [30] of 450 nM and a GI50 [31] of 280 nM. For the same compound, the GI50 [32] was 790 nM, the GI50 [33] was 390 nM and the GI50 [34] was 1950 nM. It also gave a GI50 [35] of 340 nM, a GI50 [36] of 830 nM and an IC50 [1] of 0.29 µM. The Activity [37] was “Active”, the GI50 [38] was 1510 nM and the GI50 [39] was 15.1 µM. For the same compound, the Activity [40] was “Active”, the GI50 [41] was 560 nM and the GI50 [42] was 1510 nM.

Source: ChEMBL document CHEMBL1147992, “Glaziovianin A, a new isoflavone, from the leaves of Ateleia glazioviana and its cytotoxic activity against human cancer cells” (Bioorg Med Chem Lett, 2007)
